Test results reported in patent publication US20090282496A1, “Androgen Receptor Related Methods for Treating Bladder Cancer” (University of Rochester Medical Center, priority 2008, published 2009).

What was measured:
[1] = test system: TCC-SUP cells; test: Cell proliferation assay (MTT), TCC-SUP; format: cell-based, human; details: TCC-SUP stable subline, without androgen treatment, vs. control-siRNA
[2] = test system: UMUC3 cells; test: Cell proliferation assay (MTT), UMUC3; format: cell-based, human; details: UMUC3 stable subline, without androgen treatment, vs. control-siRNA
[3] = test system: TCC-SUP and UMUC3 stable sublines (control-siRNA, AR-siRNA); test: Tumor incidence (tumorigenicity) study of control-siRNA and AR-siRNA sublines in nude mice; format: in vivo, male athymic nude mouse; details: vs. control-siRNA cells with control treatment; treatment from tumor cell implantation; tumor positive at 40 mm3
Description: (§1) The reporter plasmids [mouse mammary tumor virus (MMTV)-luciferase (Luc) and (ARE)4-Luc (provided by Dr. Michael L. Lu at Harvard Medical School)] as well as a retrovirus vector pMSCV/U6 (Clontech)-AR-siRNA were described in previous studies (Miyamoto et al., Int. J. Cancer, 117:866-72 (2005) and Yeh et al., J. Exp. Med. 198:1899-908 (2003)). Using SuperFect reagent (Qiagen), stable cell lines expressing the AR-siRNA were established by transfecting pMSCV/U6-AR-siRNA into Phi-NX packaging retrovirus producer cells (developed by the Nolan Lab at Stanford University). The target cells (i.e., TCC-SUP, UMUC3, and 5637) were then cultured in the presence of the viral supernatant, and infected cells were selected with puromycin (Sigma).
Bladder cancer cell lines (TCC-SUP, UMUC3, and 5637) were harvested, washed twice with PBS, and resuspended in Matrigel (BD Bioscience) at a final concentration of 1×10^7 cells/mL. Cells (1×10^6 cells in 100 μl per site) were then injected subcutaneously into the right and left flanks of 6-week-old male athymic nude mouse. Treatment (castration or sham surgery, flutamide [0.5 mg/mouse] or placebo pellet injection, and the recently developed anti-AR molecule ASC-J9 (50 mg/Kg or DMSO injection) (Ohtsu et al., J. Med. Chem., 45:5037-42 (2002)) was initiated either (1) at the same time as tumor cell injection (for tumor incidence studies, n=8 mice in each group) or (2) when the sizes of all tumors reached 40 mm^3 (for tumor progression studies, n=12 tumors from 6 mice in each group). Hormonal pellets were replaced as required (every 90 days). Tumor weight was calculated by the following formula: tumor weight (mg)=tumor length (mm)×[tumor width (mm)]^2×0.5 (Geram et al., Cancer Chemother. Rep., 3:47-52 (1972)). Using calipers, each tumor was measured twice a week until either the tumor size reached 40 mm^3 (for tumor incidence study) (Chen et al., Nat. Med., 10:33-9 (2004)), or until the tumor exceeded 10% of the animal's body weight, at which time the mouse was killed (for tumor progression study).

[4] = test system: AR; test: AR knockdown in stable transfectants (RT-PCR, immunoblot); format: cell-based, human; details: AR-siRNA-expressing TCC-SUP and UMUC3 cells vs. scrambled control-siRNA
Description: as §1
Total RNA from mouse bladder and xenograft tumor tissues and cultured cells was extracted by the acid guanidinium-phenol-chloroform method as previously described (Miyamoto et al., Cancer, 75:2565-70 (1995)) or by using Trizol reagent (Life Science). […] Using the iCycler (Bio-Rad) and the methods previously described by Miyoshi et al., Prostate, 56:280-6 (2003), real-time quantitative PCR analysis of AR, basic fibroblast growth factor (bFGF), vascular endothelial growth factor (VEGF), and matrix metalloproteinase-9 (MMP-9) was performed on the tissue samples from mouse xenograft tumors. […]

AR-siRNA: siRNA against AR expressed from retrovirus vector pMSCV/U6-AR-siRNA; knocks down the AR in mammalian cells (guide GGGCCCCTGGATGGATAGCTACCTCGAGGTAGCTATCCATCCAGGGGCC; listed as Homo sapiens)
reduction of cell proliferation by AR knockdown [1]: 20%
reduction of cell proliferation by AR knockdown [2]: 15%
latency of tumor formation [3]: substantially prolonged
levels of AR mRNA and protein [4]: substantially lower
